One assay addresses PKC theta kinase (Homo sapiens, UniProt Q04759). Put plainly: PKC theta kinase coupled-enzyme (NADH consumption) inhibition assay. The format is biochemical. As to conditions: 240 μM ATP, 18 nM PKC theta, 30° C. How it is done: An assay buffer solution was prepared which consisted of 100 mM HEPES (pH 7.5), 10 mM MgCl2, 25 mM NaCl, 0.1 mM EDTA and 0.01% Brij. An enzyme buffer containing reagents to final assay concentrations of 0.00001% Triton X-100, 200 μg/mL Phosphatidylserine, 20 μg/mL Diacylglycerol, 360 μM NADH, 3 mM phosphoenolpyruvate, 70 μg/mL pyruvate kinase, 24 μg/mL lactate dehydrogenase, 2 mM DTT, 100 μM substrate peptide (ERMRPRKRQGSVRRRV SEQ ID NO. 1) and 18 nM PKC theta kinase was prepared in assay buffer. To 60 μL of this enzyme buffer, in a 384 well plate, was added 2 μL of VRT stock solution in DMSO. The mixture was allowed to equilibrate for 10 mins at 30° C. The enzyme reaction was initiated by the addition of 5 μL stock ATP solution prepared in assay buffer to a final assay concentration of 240 μM. Initial rate data was determined from the rate of change of absorbance at 340 nm (corresponding to stoichiometric consumption of NADH) using a Molecular Devices Spectramax plate reader (Sunnyvale, Calif.) over 15 mins at 30° C. For each Ki determination 12 data points covering the VRT concentration range of 0-20 μM were obtained in duplicate (DMSO stocks were prepared from an initial 10 mM VRT stock with subsequent 1:2 serial dilutions). Ki values were calculated from initial rate data by non-linear regression using the Prism software package (Prism 4.0a, Graphpad Software, San Diego, Calif.).

A further assay concerns the target PKC delta kinase (Homo sapiens, UniProt Q05655). Briefly: PKC delta kinase coupled-enzyme (NADH consumption) inhibition assay. The class given is biochemical. As to conditions: 150 μM ATP, 46 nM PKC delta, 30° C. The protocol:
An assay buffer solution was prepared which consisted of 100 mM HEPES (pH 7.5), 10 mM MgCl2, 25 mM NaCl, 0.1 mM EDTA and 0.01% Brij. An enzyme buffer containing reagents to final assay concentrations of 0.002% Triton X-100, 200 μg/mL Phosphatidylserine, 20 μg/mL Diacylglycerol, 360 μM NADH, 3 mM phosphoenolpyruvate, 70 μg/mL pyruvate kinase, 24 μg/mL lactate dehydrogenase, 2 mM DTT, 150 μM substrate peptide (ERMRPRKRQGSVRRRV SEQ ID NO. 2) and 46 nM PKC delta kinase was prepared in assay buffer. To 16 μL of this enzyme buffer, in a 384 well plate, was added 1 μL of VRT stock solution in DMSO. The mixture was allowed to equilibrate for 10 mins at 30° C. The enzyme reaction was initiated by the addition of 16 μL stock ATP solution prepared in assay buffer to a final assay concentration of 150 μM. Initial rate data was determined from the rate of change of absorbance at 340 nm (corresponding to stoichiometric consumption of NADH) using a Molecular Devices Spectramax plate reader (Sunnyvale, Calif.) over 15 mins at 30° C. For each Ki determination 12 data points covering the VRT concentration range of 0-20 μM were obtained in duplicate (DMSO stocks were prepared from an initial 10 mM VRT stock with subsequent 1:2 serial dilutions). Ki values were calculated from initial rate data by non-linear regression using the Prism software package (Prism 4.0a, Graphpad Software, San Diego, Calif.).

A value given as a limit tells only on which side of the number the result lay.

Chain of PKC theta kinase (Q04759 whole entry): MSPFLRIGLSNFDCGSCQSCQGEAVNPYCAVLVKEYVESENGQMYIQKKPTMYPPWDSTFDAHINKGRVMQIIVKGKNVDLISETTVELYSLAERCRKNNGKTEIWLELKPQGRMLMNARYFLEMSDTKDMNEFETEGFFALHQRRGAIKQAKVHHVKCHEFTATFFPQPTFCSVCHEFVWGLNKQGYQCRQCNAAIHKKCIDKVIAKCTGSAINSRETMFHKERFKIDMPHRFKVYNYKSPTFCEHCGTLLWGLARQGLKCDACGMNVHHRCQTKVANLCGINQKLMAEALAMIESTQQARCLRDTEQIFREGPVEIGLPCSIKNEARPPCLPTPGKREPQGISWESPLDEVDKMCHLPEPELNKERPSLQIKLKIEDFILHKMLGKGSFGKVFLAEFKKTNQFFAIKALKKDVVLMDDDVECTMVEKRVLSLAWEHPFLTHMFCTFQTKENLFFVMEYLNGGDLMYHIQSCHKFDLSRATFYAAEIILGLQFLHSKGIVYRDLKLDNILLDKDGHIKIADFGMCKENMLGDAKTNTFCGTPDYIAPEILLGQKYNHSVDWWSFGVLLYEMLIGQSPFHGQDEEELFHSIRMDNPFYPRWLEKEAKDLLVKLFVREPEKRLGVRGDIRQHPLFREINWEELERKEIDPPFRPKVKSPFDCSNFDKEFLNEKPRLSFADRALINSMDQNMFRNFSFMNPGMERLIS
Chain of PKC delta kinase (Q05655 whole entry): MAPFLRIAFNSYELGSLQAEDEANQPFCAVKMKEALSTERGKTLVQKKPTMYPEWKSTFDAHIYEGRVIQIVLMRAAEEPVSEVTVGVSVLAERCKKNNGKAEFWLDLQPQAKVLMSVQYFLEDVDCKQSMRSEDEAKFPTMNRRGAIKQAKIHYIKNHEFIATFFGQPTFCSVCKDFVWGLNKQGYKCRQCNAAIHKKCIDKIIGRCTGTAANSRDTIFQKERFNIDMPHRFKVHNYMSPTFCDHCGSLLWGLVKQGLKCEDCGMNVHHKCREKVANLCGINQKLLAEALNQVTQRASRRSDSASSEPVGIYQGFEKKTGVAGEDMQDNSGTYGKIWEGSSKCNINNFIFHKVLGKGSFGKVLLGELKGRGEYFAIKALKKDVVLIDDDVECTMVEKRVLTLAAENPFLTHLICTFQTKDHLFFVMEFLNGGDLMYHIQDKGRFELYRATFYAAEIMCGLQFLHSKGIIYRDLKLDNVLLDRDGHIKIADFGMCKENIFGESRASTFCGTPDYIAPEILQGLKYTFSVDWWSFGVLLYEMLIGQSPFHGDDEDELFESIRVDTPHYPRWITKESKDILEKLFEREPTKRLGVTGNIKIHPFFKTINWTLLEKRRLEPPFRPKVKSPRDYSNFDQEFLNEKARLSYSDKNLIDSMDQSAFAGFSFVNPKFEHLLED

Consider `c1cc(-c2n[nH]c3nccnc23)nc(N2CCNCC2)c1` [Compound 1, 3-(6-(piperazin-1-yl)pyridin-2-yl)-1H-pyrazolo[3,4-b]pyrazine], for which the inhibition constant Ki on PKC theta kinase is less than 2800 nM; at PKC delta kinase, more than 1250 nM.

Values taken from patent US8895740B2, “Pyrazolopyrazine kinase inhibitors” (Vertex Pharmaceuticals Incorporated, priority 2010, dated 2014).
